Experimental data published in patent US20250042912A1, “NOVEL NON-FLUORINATED QUINOLONE COMPOUND AND USE THEREOF” (priority 2021, published 2025).

What was measured:
[1] = tested on: Propionibacterium acnes ATCC 6919; experiment: Acne model in mice: ear bacterial load; format: in vivo
Procedure: Experimental strain: Propionibacterium acnes ATCC 6919 (Beijing Biobw Biotechnology Co., Ltd.) Experimental animals: Balb/C mice (Zhejiang Vital River Laboratory Animal Technology Co., Ltd.) Balb/C mice were grouped and numbered, and adaptively fed for one week. On the day of modeling, Propionibacterium acnes was taken, and OD600 was measured using a microplate reader. BH1 culture medium was diluted to OD600=1 (about 5×10^8 CFU/mL), centrifuged to discard supernatant, and the remaining culture was diluted to 1×10^8 CFU/mL with PBS. Once the molding began, the mice were anesthetized with a small animal anesthesia machine, the air flow and isoflurane content of the anesthesia machine were adjusted, and the mice were placed in an anesthesia induction chamber for anesthesia induction. After there were no obvious signs of activity, the mice were taken out and their toes were clamped with tweezers or hemostatic forceps for toe pinching reaction testing, if there was no retraction pain response, the surgery could be performed. The anesthetized mice were placed on a mice plate and fixed, the air flow or isoflurane content was adjusted to maintain anesthesia (isoflurane anesthesia induction content of 3% to 4%, anesthesia maintenance content of 1% to 2%, and air flow rate of 300 mL/min to 500 mL/min). […]

IL-6 = experiment: Acne model in mice: IL-6 level in left ear tissue; format: in vivo, Balb/C mice
Procedure: (§1) Experimental strain: Propionibacterium acnes ATCC 6919 (Beijing Biobw Biotechnology Co., Ltd.) Experimental animals: Balb/C mice (Zhejiang Vital River Laboratory Animal Technology Co., Ltd.) Balb/C mice were grouped and numbered, and adaptively fed for one week. On the day of modeling, Propionibacterium acnes was taken, and OD600 was measured using a microplate reader. BH1 culture medium was diluted to OD600=1 (about 5×10^8 CFU/mL), centrifuged to discard supernatant, and the remaining culture was diluted to 1×10^8 CFU/mL with PBS. Once the molding began, the mice were anesthetized with a small animal anesthesia machine, the air flow and isoflurane content of the anesthesia machine were adjusted, and the mice were placed in an anesthesia induction chamber for anesthesia induction. […] Mouse BCA protein detection: after Propionibacterium acnes was injected for 48 hours, the BCA protein detection was detected by using the BCA protein concentration assay kit. The left ear of mouse was homogenized with 1 mL of PBS and the dilution factor equivalent to a mass volume ratio of 1:9 was calculated, then centrifuged at 1500 g for 10 minutes. […] […] was measured with a microplate reader, the standard curves were plotted, and the BCA concentrations were calculated. […]

CXCL1/KC = experiment: Acne model in mice: CXCL1 level in left ear tissue; format: in vivo, Balb/C mice
Procedure: as §1

[2] = Balb/C mice, left ear homogenate, 48 hours after injection of Propionibacterium acnes, 15 μL applied at 4, 20, 28, 44 hours, drugs as hydrochloride
[3] = compared with acne model group, p<0.001, in words

CN(C)c1cc2c(cn1)-c1ccc3c(=O)c(C(=O)O)cn(C4CC4)c3c1COC2 [Compound 6]
Ear bacterial load Log10 CFU/Ear Mean ± SD [1, 2]: 5.53 ± 0.10 Log10 CFU/Ear | bacterial loads in the left ears of mice after treatment [1, 3]: significantly decreased | IL-6 Mean ± SD (IL-6; [2]): 322.4 ± 43.33 pg/mg | IL-6 content in the left ear tissues of mice after treatment (IL-6; [3]): significantly reduced | CXCL1 Mean ± SD (CXCL1/KC; [2]): 191.5 ± 32.71 pg/mg | CXCL1 content in the left ear tissues of mice after treatment (CXCL1/KC; [3]): significantly reduced
